From PubChem BioAssay AID504571 (Southern Research Specialized Biocontainment Screening …, 2011)

tested on: human PBMC cytotoxicity, percent of cell control; experiment: PBMC viability reduction by compounds – cell-based, PBMC assay companion, set 2, cytotoxicity control for HIV-1 antiviral lead project, dose response (AID 504571)

| Compound | CC50 [µM] |
| --- | --- |
| Cc1c2c(=O)n(-c3nc4ccccc4s3)nc-2cc(O)n1Cc1ccccc1 | 21 |
| Cc1c2c(=O)n(-c3nc4ccccc4s3)nc-2cc(O)n1CCc1cccs1 | 40.8 |
| Cc1c2c(=O)n(-c3nc4ccccc4s3)nc-2cc(O)n1C1CC1 | 5.72 |
| Cc1c2c(=O)n(-c3nc4ccccc4s3)nc-2cc(O)n1Cc1ccncc1 | 2.64 |
| COc1ccc(Cn2c(O)cc3nn(-c4nc5ccccc5s4)c(=O)c-3c2C)cc1 | 19.1 |
| Cc1c2c(=O)n(-c3nc4ccccc4s3)nc-2cc(O)n1Cc1ccccc1Cl | 35.6 |
| COc1ccccc1Cn1c(O)cc2nn(-c3nc4ccccc4s3)c(=O)c-2c1C | 29.6 |
| Cc1c2c(=O)n(-c3nc4ccccc4s3)nc-2cc(O)n1CCC(C)C | 45 |
| Cc1c2c(=O)n(-c3nc4ccccc4s3)nc-2cc(O)n1Cc1ccc(F)cc1 | 19.1 |
| Cc1c2c(=O)n(-c3nc4ccccc4s3)nc-2cc(O)n1Cc1cccs1 | 14.2 |
| COc1ccc(CCn2c(O)cc3nn(-c4nc5ccccc5s4)c(=O)c-3c2C)cc1 | 49.8 |
| Cc1c2c(=O)n(-c3nc4ccccc4s3)nc-2cc(O)n1Cc1cccnc1 | 2.24 |
| Cc1c2c(=O)n(-c3nc4ccccc4s3)nc-2cc(O)n1CCc1ccc(O)cc1 | 2.55 |
